Here are results for 29 compounds from ChEMBL document CHEMBL5724564, “Patient-derived NASH model to assess the effects of chemical probes on hepatocyte regenerations” (2024).

The first assay has as its system Hepatocyte spheroids. Kind of assay: Cell viability is assessed by cellular ATP assay using CellTiter-Glo Luminescent kit. Viability is expressed as average RLU from biological replicates and normalized to negative control.Toxicity is defined as those with normalized ATP significantly less than 80 percent of the negative control. In kind it is functional, Homo sapiens. Details: unit not given here.
Conditions: not given
(In general: Cellular ATP, detected with luciferase, serves as a proxy for viable cell number.)
Regarding `CN(C)C/C=C/C(=O)Nc1cc2c(Nc3ccc(F)c(Cl)c3)ncnc2cc1O[C@H]1CCOC1.O=C(O)/C=C\C(=O)O.O=C(O)/C=C\C(=O)O` [AFATINIB DIMALEATE], the Proliferation is 0.1122.
Still for that read-out and setting: the value for `O=C(c1ccc2[nH]ccc2c1)N1CCN(S(=O)(=O)c2ccc3[nH]c(=O)oc3c2)CC1` was 0.6071; that for `COc1cc2c(cc1OCCCN1CCCC1)N=C(N)C21CCC1` was 0.2543.
Compound `O=C(N1CCS(=O)(=O)CC1)N1C[C@H](c2ccc(OC(F)(F)F)cc2)C[C@H](c2nc(C3CC3)no2)C1` [BAY-386] showed a Proliferation of 0.02871.
Same read-out and setting: the value for `CCOc1cc(N2CCC(O)CC2)ccc1Nc1ncc2c(n1)N(C)c1ccccc1C(=O)N2C` was 0.02286.
Still for that read-out and setting: the result for `CC(=O)Nc1cccc(-n2c(=O)n(C3CC3)c(=O)c3c(Nc4ccc(I)cc4F)n(C)c(=O)c(C)c32)c1` [TRAMETINIB] reads 0; that for `CCn1c(-c2nonc2N)nc2c(C#CC(C)(C)O)ncc(OCC3CCCNC3)c21` (centres undefined), 0.006402; that for `Nc1nc(NC2CC2)cc(-c2cccc(Cl)c2Cl)n1`, 0.05031.
Turning to `O=C(O)[C@H]1[C@H](Cn2nnc3ccccc3c2=O)CC[C@@H]1C(=O)c1ccc(OCCC2CCOCC2)cc1` [BAY-7598], the Proliferation is given as 0.03535.
On to `CO[C@H]1CNC[C@@H](OCC2CCC(F)(F)CC2)[C@@H]1Nc1ncc(-c2cncc(C)c2)c2cc(C)c(=O)[nH]c12`, for which the Proliferation was determined as 0.02957.
On the same count and under the same terms, the value for `CN(Cc1cnc2nc(N)nc(N)c2n1)c1ccc(C(=O)N[C@@H](CCC(=O)O)C(=O)O)cc1` [METHOTREXATE] was 0.002627.
Same read-out and setting: the result for `COc1cc(-c2cn(C)c(=O)c3cnccc23)c(OC)cc1CN(C)C` reads 0.1518; that for `C[C@@H](NC(=O)Nc1cc2[nH]ncc2c(CO)n1)c1ccccc1` [ERKi], 0.06922; that for `COc1c(C)cc(NC(=O)c2nn(Cc3ccc(F)cc3)c3c2CN(C(=O)c2ccc[nH]2)C[C@]3(C)C(N)=O)cc1C`, 0.06587.
For `Cn1cc(-c2ccc3nnc(Sc4ccc5ncccc5c4)n3n2)cn1` [SGX-523], the Proliferation turned out to be 0.3569.
Same read-out and setting: the value for `COc1ccccc1-c1cc(Nc2cccc(CS(N)(=O)=O)c2)ncn1` was 0.2719; that for `CCOC(=O)c1c(/C(C#N)=C\N)c2ccc(Cl)c(Cl)c2n1C` was 0.874; that for `CCCCN(CCCC)C(=O)CN1C[C@@H](c2cc(OC)c3c(c2)OCO3)[C@H](C(=O)O)[C@H]1CC(C)(C)CCC.Cl` was 0.1508.
`CN1C[C@H](Nc2cnn(C)c(=O)c2Br)C[C@H](c2ccccc2)C1` yielded a Proliferation of 0.003884.
Same read-out and setting: the value for `O=C(O)Cc1ccccc1Nc1c(Cl)cccc1Cl` [DICLOFENAC] was 0.2575; that for `O=S(=O)(NC1CCC(c2cc(F)ccc2F)(S(=O)(=O)c2ccc(Cl)cc2)CC1)C(F)(F)F` (centres undefined) [MRK-560] was 0.1212.
With `CCNC(=O)c1cc2c(N3CCOCC3C)ccnc2[nH]1` (centres undefined), the Proliferation was determined as 0.05192.
On the same count and under the same terms, the result for `Cc1cn(-c2cc(NC(=O)c3ccc4c(c3)CN(c3cncnc3)C[C@@H]4C)cc(C(F)(F)F)c2)cn1` reads 0.4149; that for `CCCCN(CCCC)C(=O)CN1C[C@H](c2cc(OC)c3c(c2)OCO3)[C@@H](C(=O)O)[C@@H]1CC(C)(C)CCC.Cc1ccc(S(=O)(=O)O)cc1`, 0.6131.

The assay is the same for the next values; noted with them: Concentration range 5nM-5uM.
For the compound `Cn1cc(CCn2cnc(-c3cnn(C)c3)c2-c2ccc(C#N)cc2)cn1`, the Proliferation is on record as 0.05329.

The same assay, now with this note: Concentration range 10nM-10uM.
`CN1CCN(c2ccc(-c3cccc(CN4CCOCC4)c3)cc2NC(=O)c2c[nH]c(=O)cc2C(F)(F)F)CC1` displayed a Proliferation of 0.001358.
On the same count and under the same terms, the value for `COc1cc(C(=O)N2CC[C@@H](O)[C@@H](N)C2)cc2nc(-c3cc4ccccc4n3CC3CC3)n(C)c12.Cl` was 0.09717.
On the same count and under the same terms, the value for `CNCCN1CCC(OCc2ccccc2)CC1` was 0.406; that for `O=C(NC[C@H](O)CN1CCc2ccccc2C1)c1ccnc(NC2CCC2)c1` was 0.0004.
